Laboratory results from US6028110A, “Succinyl hydroxamic acid, N-formyl-N-hydroxy amino carboxylic acid and succinic acid amide derivatives as metalloprotease inhibitors” (British Biotech Pharmaceuticals Ltd., priority 1994, dated 2000).
Counter-ions that a name gives are not always drawn.

How the values were obtained:
collagenase = assay: Inhibition of collagenase (acetylated 14C collagen, Cawston and Barrett); format: biochemical; conditions: 37°, 16 hours, pH 7.5
Protocol: The collagen was acetylated ^14 C collagen prepared by the method of Cawston and Murphy, (Methods in Enzymology, 80, 711, 1981), hereby incorporated by reference. The samples were centrifuged to sediment undigested collagen, and an aliquot of the radioactive supernatant removed for assay on a scintillation counter as a measure of hydrolysis. […] For weak inhibitors, the percentage inhibition (% I) at a concentration of 100 μM is given.

[1] = test system: human PUMP-1 (matrilysin); assay: Inhibition of human PUMP-1 (matrilysin) ([14C]-casein degradation assay); format: biochemical; conditions: 16 hours at 37° C, recombinant human PUMP-1 expressed in CHO cells
Protocol: Recombinant human PUMP-1 was expressed in CHO cells and purified by heparin-agarose and Procion Red chromatography. A [^14 C]-casein degradation assay was used to measure PUMP-1 activity. […] The incubation was terminated by addition of trichloroacetic acid (final concentration 10%) and the substrate was separated from the TCA-soluble degradation products by centrifugation at 10,000 g for 15 minutes. […] The inhibitors were dissolved and diluted in DMSO. […] For weak inhibitors, the percentage inhibition (% I) at a concentration of 100 μM is given.

| Compound | Collagenase % Inhibition @ 100 μM (collagenase) [% I] | PUMP % Inhibition @ 100 μM [1] [% I] |
| --- | --- | --- |
| CCCCCCCCCCCC[C@H](CC(=O)O)C(=O)N[C@@H](Cc1ccccc1)C(=O)NC [Comparator Example A, 3R-(1S-Methylcarbamoyl-2-phenyl-ethylcarbamoyl)-pentadecanoic acid] | 30 | 10 |
| CCCCCCCCCCCCCCCC[C@H](CC(=O)O)C(=O)N[C@@H](Cc1ccccc1)C(=O)NC [Example 1, 3R-(1S-Methylcarbamoyl-2-phenyl-ethylcarbamoyl)nonadecanoic acid (dicyclohexylamine salt)] | 0 | 20 |
